Measured values taken from patent US20130096055A1, “LONG-ACTING Y2 RECEPTOR AGONISTS” (Novo Nordisk A/S, priority 2009, published 2013).
Starred links: 1 amine or outer side, 2 acyl side, 3 side chain; linkers in the order of their positions; H or OH if unused. Groups on a side chain read outwards from the residue. No end group written: not given here. *: point of attachment. C18 diacid = O=C(O)CCCCCCCCCCCCCCCCC(=O)*; γGlu = O=C(O)[C@H](CCC(=O)[*:2])N[*:1]; AEEA = NCCOCCOCC(=O)O

T1: Y1 receptor (Homo sapiens, UniProt P25929)
T1 construct: expressed in transfected cells; host or cells: ACTOne HEK-293 cells
T1 sequence (P25929 1-384): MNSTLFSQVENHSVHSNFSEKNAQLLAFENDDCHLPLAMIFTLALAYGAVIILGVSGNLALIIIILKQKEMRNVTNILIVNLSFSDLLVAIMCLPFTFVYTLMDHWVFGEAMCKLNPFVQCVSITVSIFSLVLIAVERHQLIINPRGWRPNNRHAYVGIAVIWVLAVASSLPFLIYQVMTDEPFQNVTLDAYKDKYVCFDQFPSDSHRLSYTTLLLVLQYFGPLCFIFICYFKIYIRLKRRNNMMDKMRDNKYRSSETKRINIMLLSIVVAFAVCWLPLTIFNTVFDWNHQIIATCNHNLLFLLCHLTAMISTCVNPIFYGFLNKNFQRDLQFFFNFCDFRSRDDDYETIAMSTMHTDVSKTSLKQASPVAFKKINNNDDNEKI

T2: human Y5 receptor (Homo sapiens, UniProt Q15761)
T2 construct: expressed in transfected cells
T2 sequence (Q15761 1-445): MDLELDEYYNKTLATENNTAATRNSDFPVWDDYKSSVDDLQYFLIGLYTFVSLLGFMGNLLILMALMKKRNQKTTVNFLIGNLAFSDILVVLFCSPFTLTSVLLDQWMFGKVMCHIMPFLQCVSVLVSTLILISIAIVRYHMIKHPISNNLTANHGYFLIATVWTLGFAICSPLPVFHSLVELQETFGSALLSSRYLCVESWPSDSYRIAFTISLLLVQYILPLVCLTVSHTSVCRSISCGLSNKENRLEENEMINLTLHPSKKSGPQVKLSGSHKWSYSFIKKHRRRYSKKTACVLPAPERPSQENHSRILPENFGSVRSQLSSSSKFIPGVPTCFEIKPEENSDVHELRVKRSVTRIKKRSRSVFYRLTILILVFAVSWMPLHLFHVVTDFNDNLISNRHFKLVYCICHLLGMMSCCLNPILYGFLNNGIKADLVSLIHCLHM

T3: Y2 receptor (UniProt P49146 1-381, limits assumed)
T3 sequence (looked up): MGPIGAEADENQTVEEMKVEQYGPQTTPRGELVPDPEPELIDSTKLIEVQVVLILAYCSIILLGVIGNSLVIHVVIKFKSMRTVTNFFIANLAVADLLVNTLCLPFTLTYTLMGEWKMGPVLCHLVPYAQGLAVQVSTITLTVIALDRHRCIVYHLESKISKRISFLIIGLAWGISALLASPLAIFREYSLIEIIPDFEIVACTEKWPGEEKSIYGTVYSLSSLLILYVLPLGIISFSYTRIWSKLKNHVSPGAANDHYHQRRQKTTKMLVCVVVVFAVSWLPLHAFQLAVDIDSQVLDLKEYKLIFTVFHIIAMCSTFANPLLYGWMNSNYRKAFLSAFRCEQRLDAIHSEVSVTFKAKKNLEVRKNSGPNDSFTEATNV

T4: Y1 receptor (UniProt P25929 1-384, limits assumed)
T4 sequence (looked up): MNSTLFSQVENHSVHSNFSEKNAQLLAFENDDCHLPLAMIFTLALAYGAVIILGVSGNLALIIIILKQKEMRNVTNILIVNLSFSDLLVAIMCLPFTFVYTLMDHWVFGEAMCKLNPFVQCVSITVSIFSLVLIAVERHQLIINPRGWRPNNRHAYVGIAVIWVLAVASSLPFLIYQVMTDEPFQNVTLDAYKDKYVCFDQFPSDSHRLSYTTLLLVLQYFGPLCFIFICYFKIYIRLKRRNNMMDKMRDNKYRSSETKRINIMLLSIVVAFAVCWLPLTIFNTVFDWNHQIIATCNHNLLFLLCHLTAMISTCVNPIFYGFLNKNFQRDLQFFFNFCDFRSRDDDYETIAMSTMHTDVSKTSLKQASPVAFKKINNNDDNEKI

T5: human Y5 receptor (human, UniProt Q15761 1-445)
T5 sequence (looked up): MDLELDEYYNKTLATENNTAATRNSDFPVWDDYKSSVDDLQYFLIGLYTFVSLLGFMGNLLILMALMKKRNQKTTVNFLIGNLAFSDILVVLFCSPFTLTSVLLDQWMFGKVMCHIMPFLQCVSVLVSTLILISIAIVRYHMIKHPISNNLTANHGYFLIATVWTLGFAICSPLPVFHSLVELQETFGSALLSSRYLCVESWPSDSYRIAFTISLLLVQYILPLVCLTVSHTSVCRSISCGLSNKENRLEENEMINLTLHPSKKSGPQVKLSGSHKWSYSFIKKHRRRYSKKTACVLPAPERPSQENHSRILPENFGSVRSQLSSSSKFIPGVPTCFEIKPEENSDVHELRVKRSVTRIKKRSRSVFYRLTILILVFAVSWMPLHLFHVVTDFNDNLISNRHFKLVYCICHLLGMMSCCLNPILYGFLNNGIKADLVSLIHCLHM


Columns and labels:
[1] = molecular target: T1, Y1 receptor; experiment: Assay (II) Y1 receptor ACTOne potency assay; assay type: cell-based
From the text: ACTOne™ is an easily scaleable cAMP biosensor HTS platform for measurement of Gs and Gi coupled 7™ receptor signalling from BD Biosciences (San Jose, Calif.). The cells express a biosensor developed around a modified rat olfactory cyclic nucleotide gated (CNG) calcium channel—a fairly non-discriminatory ion channel that responds to cAMP and cGMP. The CNG has been engineered to be cAMP selective and thus function as a cAMP responsive biosensor that signals through calcium or membrane potential responsive dyes.

[2] = molecular target: T2, human Y5 receptor; experiment: Assay (III) Y5 receptor IPOne potency assay; assay type: cell-based
[3] = molecular target: T3, Y2 receptor; experiment: cell-based or functional assay
[4] = molecular target: T4, Y1 receptor; experiment: cell-based or functional assay
[5] = molecular target: T5, human Y5 receptor; experiment: cell-based or functional assay

Molecule	EC50 [1] [nM]	Receptor potency Y1/Y2 ratio ([1]; ratio of Y1 (Assay II) to Y2 (Assay I) receptor potency)	EC50 [2] [nM]	Receptor potency Y5/Y2 ratio ([2]; ratio of Y5 (Assay III) to Y2 (Assay I) receptor potency)	Receptor potency Y2 (Assay (I), ACTOne) [3] [nM]	Receptor potency Y1 (Assay (II), ACTOne) [4] [nM]	Receptor potency Y5 (Assay (III), IPOne) [5] [nM]
CC[C@H](C)[C@H](N)C(=O)N[C@@H](CCCNC(=N)N)C(=O)N1CCC[C@H]1C(=O)N[C@@H](CCC(=O)O)C(=O)N[C@@H](C)C(=O)N1CCC[C@H]1C(=O)NCC(=O)N[C@@H](CCC(=O)O)C(=O)N[C@@H](CC(=O)O)C(=O)N[C@@H](C)C(=O)N[C@@H](CO)C(=O)N1CCC[C@H]1C(=O)N[C@@H](CCC(=O)O)C(=O)N[C@@H](CCC(=O)O)C(=O)N[C@@H](CC(C)C)C(=O)N[C@@H](CCC(=O)O)C(=O)N[C@@H](CCCNC(=N)N)C(=O)N[C@@H](Cc1ccc(O)cc1)C(=O)N[C@@H](Cc1ccc(O)cc1)C(=O)N[C@@H](C)C(=O)N[C@@H](CO)C(=O)N[C@@H](CC(C)C)C(=O)N[C@@H](CCCNC(=N)N)C(=O)N[C@@H](Cc1c[nH]cn1)C(=O)N[C@@H](Cc1ccc(O)cc1)C(=O)N[C@@H](CC(C)C)C(=O)N[C@@H](CCC(N)=O)C(=O)N[C@@H](CCCCNC(=O)COCCOCCNC(=O)COCCOCCNC(=O)CC[C@H](NC(=O)CCCCCCCCCCCCCCCCC(=O)O)C(=O)O)C(=O)N[C@H](C(=O)N[C@H](C(=O)N[C@@H](CCCNC(=N)N)C(=O)N[C@@H](CCC(N)=O)C(=O)N[C@@H](CCCNC(=N)N)C(=O)N[C@@H](Cc1ccc(O)cc1)C(N)=O)[C@@H](C)O)C(C)C [SEQ ID NO: 39, N-epsilon30[2-(2-{2-[2-(2-{2-[(S)-4-Carboxy-4-(17-carboxyheptadecanoylamino)butyrylamino]ethoxy}ethoxy)acetylamino]ethoxy}ethoxy)acetyl][Arg4,Glu18,Gln29,Lys30]hPYY(3-36)]	≥ 1000	>3.6	≥ 1000	>3.6	–	–	–
IRPEAPGEDASPEELERYYASLRHYLQK([AEEA-AEEA-γGlu-C18 diacid])VTRQRY-NH2	–	–	–	–	274	≥ 1000	≥ 1000
